# Results: patent US20230167127A1, “COMPOUNDS AND THEIR USE IN THE TREATMENT OF BACTERIAL INFECTION” (Hoffmann-La Roche Inc., priority 2020, published 2023)
# pIC50: −log10 of the molar value.
# System: Escherichia coli ATCC 25922
# Assay: 50% growth inhibitory concentration (IC50) determination, Iso-Sensitest broth dilution
# Format: cell-based
# Details: Escherichia coli, ATCC25922, 16 h, strain Escherichia coli ATCC 25922; 10-point broth dilution, optical density at 600 nm over 16 h; read-out: Escherichia coli growth inhibition IC50
# Method in brief: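 10-point twofold Iso-Sensitest broth dilution (e.g. 50 to 0.097 μM final) with DMSO stocks, incubated at 35±2° C. Growth followed by OD 600 nm every 20 min over 16 h; IC50 derived from growth inhibition during logarithmic phase.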
row,pIC50,SMILES
1,6.62,"N#Cc1cccc2c1CC(CN1CCC3(CC1)CN(c1ccc4c(n1)NC(=O)CO4)C(=O)O3)C2N (racemic) [Example 131, rac-1,2-trans-1-amino-2-[[2-oxo-3-(3-oxo-4H-pyrido[3,2-b][1,4]oxazin-6-yl)-1-oxa-3,8-diazaspiro[4.5]decan-8-yl]methyl]-2,3-dihydro-1H-indene-4-carbonitrile; formic acid]"
2,6.71,"Cc1nc(OCC2(N)CC2)cc2c1CC(CNCCC1CN(c3ccc4c(n3)NC(=O)CO4)C(=O)O1)C2 (centres unmarked) [Example 175, 6-[5-[2-[[3-[(1-aminocyclopropyl)methoxy]-1-methyl-6,7-dihydro-5H-cyclopenta[c]pyridin-6-yl]methylamino]ethyl]-2-oxo-1,3-oxazolidin-3-yl]-4H-pyrido[3,2-b][1,4]oxazin-3-one]"
3,> 7.01,"CNC(=O)COc1ccc2c(c1C#N)CC(CNCCC1CN(c3cnc4c(n3)NC(=O)CO4)C(=O)O1)C2 (centres unmarked) [Example 286, 2-[[4-cyano-2-[[2-[2-oxo-3-(3-oxo-4H-pyrazino[2,3-b][1,4]oxazin-6-yl)-1,3-oxazolidin-5-yl]ethylamino]methyl]-2,3-dihydro-1H-inden-5-yl]oxy]-N-methylacetamide]"
4,5.90,"N#Cc1cccc2c1CC(CN[C@H]1CC[C@H](C3CN(c4ccc5c(n4)NC(=O)CO5)C(=O)O3)CC1)C2 (stereo partly drawn) [Example 100, 2-[[[trans-4-[2-oxo-3-(3-oxo-4H-pyrido[3,2-b][1,4]oxazin-6-yl)-1,3-oxazolidin-5-yl]cyclohexyl]amino]methyl]-2,3-dihydro-1H-indene-4-carbonitrile; formic acid]"
5,6.65,"Cc1ncc(F)c2c1CC(CNCCc1nn(-c3cnc4c(n3)NC(=O)CO4)c(=O)o1)C2 (centres unmarked) [Example 335, 6-[5-[2-[(4-fluoro-1-methyl-6,7-dihydro-5H-cyclopenta[c]pyridin-6-yl)methylamino]ethyl]-2-oxo-1,3,4-oxadiazol-3-yl]-4H-pyrazino[2,3-b][1,4]oxazin-3-one]"
6,6.23,"O=C1COc2ccc(N3CC(CCNCC4Cc5ccccc5C4)OC3=O)nc2N1 (centres unmarked) [Example 87, 6-[5-[2-(2,3-dihydro-1H-inden-2-ylmethylamino)ethyl]-2-oxo-1,3-oxazolidin-3-yl]-4H-pyrido[3,2-b][1,4]oxazin-3-one]"
7,6.31,"CNC(=O)COc1nc(C)c2c(c1C)CC(CNCCC1CN(c3cnc4c(n3)NC(=O)CO4)C(=O)O1)C2 (centres unmarked) [Example 111, 2-[[1,4-dimethyl-6-[[2-[2-oxo-3-(3-oxo-4H-pyrazino[2,3-b][1,4]oxazin-6-yl)-1,3-oxazolidin-5-yl]ethylamino]methyl]-6,7-dihydro-5H-cyclopenta[c]pyridin-3-yl]oxy]-N-methylacetamide]"
8,5.66,"O=C1COc2ccc(N3C[C@H](NC4CC(NC5Cc6cccc(F)c6C5)C4)CC3=O)nc2N1 (stereo partly drawn) [Example 23, 6-[(4R)-4-[[3-[(4-fluoro-2,3-dihydro-1H-inden-2-yl)amino]cyclobutyl]amino]-2-oxopyrrolidin-1-yl]-4H-pyrido[3,2-b][1,4]oxazin-3-one; formic acid]"
9,6.00,"NC1c2ccnc(Cl)c2CC1CNCCC1CN(c2ccc3c(n2)NC(=O)CO3)C(=O)O1 (racemic) [Example 146, 6-[2-oxo-5-[2-[[rac-5,6-cis-5-amino-1-chloro-6,7-dihydro-5H-cyclopenta[c]pyridin-6-yl]methylamino]ethyl]-1,3-oxazolidin-3-yl]-4H-pyrido[3,2-b][1,4]oxazin-3-one; formic acid]"
10,> 7.01,"Cc1ncc(F)c2c1CC(CNCCC1CN(c3ccc4c(n3)NC(=O)CO4)C(=O)O1)C2 (centres unmarked) [Example 36, 6-[5-[2-[(4-fluoro-1-methyl-6,7-dihydro-5H-cyclopenta[c]pyridin-6-yl)methylamino]ethyl]-2-oxo-1,3-oxazolidin-3-yl]-4H-pyrido[3,2-b][1,4]oxazin-3-one]"
11,> 7.01,"O=C1COc2ncc(-n3cc(CCNCC4Cc5cncc(F)c5C4)oc3=O)nc2N1 (centres unmarked) [Example 372, 6-[5-[2-[(4-fluoro-6,7-dihydro-5H-cyclopenta[e]pyridin-6-yi)methylamino]ethyl]-2-oxo-1,3-oxazol-3-yl]-4H-pyrazino[2,3-b][1,4]oxazin-3-one]"
12,> 7.01,"NC(=O)COc1cc(F)c2c(c1)CC(CNCCC1CN(c3cnc4c(n3)NC(=O)CO4)C(=O)O1)C2 (centres unmarked) [Example 305, 2-[[7-fluoro-2-[[2-[2-oxo-3-(3-oxo-4H-pyrazino[2,3-b][1,4]oxazin-6-yl)-1,3-oxazolidin-5-yl]ethylamino]methyl]-2,3-dihydro-1H-inden-5-yl]oxy]acetamide]"
13,> 7.01,"N#Cc1cc(OCC2(N)CC2)cc2c1CC(CNCCC1CN(c3cnc4c(n3)NC(=O)CO4)C(=O)O1)C2 (centres unmarked) [Example 186, 6-((1-aminocyclopropyl)methoxy)-2-(((2-(2-oxo-3-(3-oxo-3,4-dihydro-2H-pyrazino[2,3-b][1,4]oxazin-6-yl)oxazolidin-5-yl)ethyl)amino)methyl)-2,3-dihydro-1H-indene-4-carbonitrile]"
14,6.75,"Cc1nc(OCCN)c(C)c2c1CC(CNCCC1CN(c3ccc4c(n3)NC(=O)CO4)C(=O)O1)C2 (centres unmarked) [Example 171, 6-[5-[2-[[3-(2-aminoethoxy)-1,4-dimethyl-6,7-dihydro-5H-cyclopenta[c]pyridin-6-yl]methylamino]ethyl]-2-oxo-1,3-oxazolidin-3-yl]-4H-pyrido[3,2-b][1,4]oxazin-3-one]"
15,6.21,"Cc1ncnc2c1CC(CNCCC1CN(c3ccc4c(n3)NC(=O)CO4)C(=O)O1)C2 (centres unmarked) [Example 421, 6-[5-[2-[(4-methyl-6,7-dihydro-5H-cyclopenta[d]pyrimidin-6-yl)methylamino]ethyl]-2-oxo-1,3-oxazolidin-3-yl]-4H-pyrido[3,2-b][1,4] oxazin-3-one]"
16,6.44,"CC(CN)Oc1cc(F)c2c(c1)CC(CNCCC1CN(c3ccc4c(n3)NC(=O)CO4)C(=O)O1)C2 (centres unmarked) [Example 155, 6-[5-[2-[[6-(1-aminopropan-2-yloxy)-4-fluoro-2,3-dihydro-1H-inden-2-yl]methylamino]ethyl]-2-oxo-1,3-oxazolidin-3-yl]-4H-pyrido[3,2-b][1,4]oxazin-3-one; formic acid]"
17,> 7.01,"O=C1COc2ncc(N3CC(CCNCC4Cc5nccc(F)c5C4)OC3=O)nc2N1 (centres unmarked) [Example 318, 6-[5-[2-[(4-fluoro-6,7-dihydro-5H-cyclopenta[b]pyridin-6-yl)methylamino]ethyl]-2-oxo-1,3-oxazolidin-3-yl]-4H-pyrazino [2,3-b][1,4]oxazin-3-one]"
18,> 7.01,"NC1(COc2cc3c(c(Cl)n2)CC(CNCCC2CN(c4ccc5c(n4)NC(=O)CO5)C(=O)O2)C3)CC1 (centres unmarked) [Example 122, 6-[5-[2-[[3-[(1-aminocyclopropyl)methoxy]-1-chloro-6,7-dihydro-5H-cyclopenta[c]pyridin-6-yl]methylamino]ethyl]-2-oxo-1,3-oxazolidin-3-yl]-4H-pyrido[3,2-b][1,4]oxazin-3-one; formic acid]"
19,> 7.01,"O=C1COc2ccc(N3CC(CCNCC4Cc5cccc(F)c5C4)OC3=O)nc2N1 (centres unmarked) [Example 91, 6-[5-[2-[(4-fluoro-2,3-dihydro-1H-inden-2-yl)methylamino]ethyl]-2-oxo-1,3-oxazolidin-3-yl]-4H-pyrido[3,2-b][1,4]oxazin-3-one]"
20,> 7.01,"Cc1c(F)cnc2c1CC(CN1CCC3(CC1)CN(c1cnc4c(n1)NC(=O)CO4)C(=O)O3)C2 (centres unmarked) [Example 301, 6-[8-[(3-fluoro-4-methyl-6,7-dihydro-5H-cyclopenta[b]pyridin-6-yl)methyl]-2-oxo-1-oxa-3,8-diazaspiro[4.5]decan-3-yl]-4H-pyrazino[2,3-b][1,4]oxazin-3-one]"
